Publication PMC11882969 (Nature Communications, 2025)
“And” between values parts separate entries of the source, which are not always exact repeats. Identical values can stand only once.

Legend:
[1] = target: hCB1 (Homo sapiens, UniProt P21554); assay: Radioligand competition binding at hCB1; design: host or cells: HEK293SL cells, transient PEI transfection; details: for radioligand binding, competition curve point (normalized): log[drug]
[2] = Pharmacokinetics: plasma, brain, CSF; details: for concentration at 1 min / concentration at 5 min / concentration at 15 min / concentration at 30 min / concentration at 60 min / concentration at 120 min / concentration at 240 min / concentration at 360 min / concentration at 480 min: intraperitoneal
[3] = test system: mice; assay: Hot plate, 52 °C; format: in vivo, mouse
[4] = test system: mice; assay: Rotarod test; format: in vivo, mouse
[5] = target: panel of 320 non-olfactory GPCRs (Homo sapiens, UniProt Q14439); format: cell-based
panel of 320 non-olfactory GPCRs (Homo sapiens, UniProt Q14439), sequence (Q14439 whole entry): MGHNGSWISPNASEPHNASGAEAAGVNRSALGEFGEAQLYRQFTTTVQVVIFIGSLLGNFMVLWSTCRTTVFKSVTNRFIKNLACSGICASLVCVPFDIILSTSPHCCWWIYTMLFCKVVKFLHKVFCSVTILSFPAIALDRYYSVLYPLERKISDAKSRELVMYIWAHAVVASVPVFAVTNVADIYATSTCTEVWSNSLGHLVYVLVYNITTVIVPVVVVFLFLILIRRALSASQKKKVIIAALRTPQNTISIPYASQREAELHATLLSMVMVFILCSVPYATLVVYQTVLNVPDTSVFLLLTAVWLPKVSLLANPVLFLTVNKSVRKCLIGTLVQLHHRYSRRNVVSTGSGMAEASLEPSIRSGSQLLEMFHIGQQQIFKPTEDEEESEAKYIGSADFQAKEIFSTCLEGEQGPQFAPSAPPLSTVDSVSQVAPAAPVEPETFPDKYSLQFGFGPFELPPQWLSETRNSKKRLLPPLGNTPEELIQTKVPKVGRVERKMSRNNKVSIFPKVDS

[6] = target: panel of 320 non-olfactory GPCRs (Homo sapiens, UniProt P35368); format: cell-based
panel of 320 non-olfactory GPCRs (Homo sapiens, UniProt P35368), sequence (P35368 whole entry): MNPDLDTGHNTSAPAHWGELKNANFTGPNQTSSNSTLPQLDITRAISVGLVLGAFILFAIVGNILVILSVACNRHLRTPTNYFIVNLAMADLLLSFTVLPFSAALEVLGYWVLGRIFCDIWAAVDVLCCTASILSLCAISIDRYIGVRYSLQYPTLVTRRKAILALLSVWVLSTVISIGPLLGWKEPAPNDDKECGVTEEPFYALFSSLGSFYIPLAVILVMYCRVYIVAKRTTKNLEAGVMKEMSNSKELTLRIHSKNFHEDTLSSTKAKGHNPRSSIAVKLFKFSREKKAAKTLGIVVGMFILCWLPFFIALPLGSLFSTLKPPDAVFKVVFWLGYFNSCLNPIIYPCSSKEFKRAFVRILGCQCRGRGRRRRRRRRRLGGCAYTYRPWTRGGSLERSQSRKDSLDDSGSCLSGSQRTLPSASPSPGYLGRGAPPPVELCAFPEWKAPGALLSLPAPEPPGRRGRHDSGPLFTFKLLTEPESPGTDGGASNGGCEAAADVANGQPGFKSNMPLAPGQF

[7] = target: panel of 320 non-olfactory GPCRs (Homo sapiens, UniProt Q9NYM4); format: cell-based
panel of 320 non-olfactory GPCRs (Homo sapiens, UniProt Q9NYM4), sequence (Q9NYM4 17-423): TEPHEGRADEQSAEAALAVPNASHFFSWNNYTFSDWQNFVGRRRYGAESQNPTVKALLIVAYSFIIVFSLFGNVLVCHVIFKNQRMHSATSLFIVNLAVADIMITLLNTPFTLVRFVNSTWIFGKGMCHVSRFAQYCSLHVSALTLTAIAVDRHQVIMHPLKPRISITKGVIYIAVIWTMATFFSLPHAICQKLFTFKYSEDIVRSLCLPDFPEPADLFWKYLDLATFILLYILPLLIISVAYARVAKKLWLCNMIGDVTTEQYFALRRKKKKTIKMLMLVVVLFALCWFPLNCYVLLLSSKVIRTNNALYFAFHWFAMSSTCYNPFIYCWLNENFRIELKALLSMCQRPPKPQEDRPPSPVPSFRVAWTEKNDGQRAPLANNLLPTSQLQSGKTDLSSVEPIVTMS

[8] = test system: mice; assay: Acetone test, cold allodynia after spared nerve injury; format: in vivo, mouse
Protocol: Mice were placed on a wire mesh and thirty min after an i.p. injection of the compounds we applied a drop (50 μL) of acetone on the ventral aspect of the hindpaw, 5 times every 30 sec. We recorded the number of nocifensive behaviors (paw lifts/licks/shakes/bites) over the 5 applications.

[9] = target: hCB2 (Homo sapiens, UniProt P34972); assay: Radioligand competition binding, HEK293 cells expressing human CB2R; design: expressed in transfected cells; host or cells: HEK293 cells stably expressing human CB2R (Laboratory of Ken Mackie); details: hCB2, log[drug], replicate columns
hCB2, sequence (P34972 whole entry): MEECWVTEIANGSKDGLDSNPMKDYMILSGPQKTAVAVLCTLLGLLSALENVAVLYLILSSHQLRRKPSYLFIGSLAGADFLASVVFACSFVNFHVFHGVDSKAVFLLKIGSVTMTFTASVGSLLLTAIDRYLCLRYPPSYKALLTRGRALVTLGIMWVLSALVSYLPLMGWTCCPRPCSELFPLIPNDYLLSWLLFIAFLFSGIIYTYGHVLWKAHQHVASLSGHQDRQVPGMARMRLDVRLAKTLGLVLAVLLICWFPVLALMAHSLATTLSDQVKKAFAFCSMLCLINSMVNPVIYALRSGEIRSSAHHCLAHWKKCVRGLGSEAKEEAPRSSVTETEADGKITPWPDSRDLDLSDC

[10] = test system: mice; assay: Catalepsy test, vertical wire mesh; format: in vivo, mouse
Protocol: Thirty min after an i.p. injection of the compounds, mice were placed on a vertical wire mesh and the latency to move all four paws was recorded.

[11] = male, CD-1, mouse, CSF, 0.2 mg/kg
[12] = male, CD-1, mouse, brain, 0.2 mg/kg
[13] = male, CD-1, mouse, plasma, 0.2 mg/kg
[14] = male, CD-1, mouse, plasma, ip, 0.2 mg/kg
[15] = 0.2 mg/kg, individual animals, FigS11b

hCB1, sequence (P21554 whole entry): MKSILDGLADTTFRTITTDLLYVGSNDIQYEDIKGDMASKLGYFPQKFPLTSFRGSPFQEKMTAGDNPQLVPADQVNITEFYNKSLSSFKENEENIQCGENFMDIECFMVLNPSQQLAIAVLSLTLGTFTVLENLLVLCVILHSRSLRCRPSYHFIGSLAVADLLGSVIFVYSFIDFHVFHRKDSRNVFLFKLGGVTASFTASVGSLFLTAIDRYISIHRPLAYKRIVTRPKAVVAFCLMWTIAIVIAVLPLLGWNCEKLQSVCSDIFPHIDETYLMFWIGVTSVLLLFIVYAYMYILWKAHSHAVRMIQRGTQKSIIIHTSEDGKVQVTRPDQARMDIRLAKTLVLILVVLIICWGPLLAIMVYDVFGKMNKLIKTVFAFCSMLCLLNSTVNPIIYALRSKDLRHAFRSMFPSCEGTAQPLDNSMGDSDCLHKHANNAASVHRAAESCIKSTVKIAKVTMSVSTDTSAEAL

For `Cc1cc(C(=O)NC(C)(c2ccco2)c2ccco2)nn1-c1cccc(C(F)(F)F)c1` [‘4936], the Ki [1] was 3.98 nM, the “radioligand binding, competition curve point (normalized)” value (from here on “radioligand binding … (normalized)”) ([1]; M = -5.643, replicate columns) was -14.5136 and 0.4673 and the “radioligand binding … (normalized)” value ([1]; M = -6.357, replicate columns) was -3.19 and 6.075. The “radioligand binding … (normalized)” value ([1]; M = -7.07, replicate columns) was 20.4147 and 9.813, the “radioligand binding … (normalized)” value ([1]; M = -7.783, replicate columns) was 36.2041 and 27.8816 and the “radioligand binding … (normalized)” value ([1]; M = -8.496, replicate columns) was 40.1914 and 64.2523. For the same compound, the “radioligand binding … (normalized)” value ([1]; M = -9.21, replicate columns) was 71.0526 and 82.243, the “radioligand binding … (normalized)” value ([1]; M = -9.923, replicate columns) was 77.9904 and 73.053 and the “radioligand binding … (normalized)” value ([1]; M = -10.636, replicate columns) was 83.8915 and 104.439. For the same compound, the “brain AUC0→inf” value ([2]; 0.2 mg/kg i.p., CD-1 mice) was 5610 ng·min/mL, the “brain Cmax” value ([2]; 0.2 mg/kg i.p., CD-1 mice) was 26.2 ng/g and the “level in CSF” value ([2]; 0.2 mg/kg i.p., CD-1 mice) was “but not CSF compartments”. It also gave a concentration at 1 min [2, 11] of 0 ng/mL, a concentration at 5 min [2, 11] of 0 ng/mL and a concentration at 15 min [2, 11] of 0 ng/mL. The concentration at 30 min [2, 11] was 0 ng/mL, the concentration at 60 min [2, 11] was 0 ng/mL and the concentration at 120 min [2, 11] was 0 ng/mL. It also gave a concentration at 240 min [2, 11] of 0 ng/mL, a concentration at 360 min [2, 11] of 0 ng/mL and a concentration at 480 min [2, 11] of 0 ng/mL. The concentration at 1 min [2, 12] was 0 ng/g, the concentration at 5 min [2, 12] was 2.39 ng/g and the concentration at 15 min [2, 12] was 12 ng/g. It also gave a concentration at 30 min [2, 12] of 25.2 ng/g, a concentration at 60 min [2, 12] of 26.1 ng/g and a concentration at 120 min [2, 12] of 17.9 ng/g. It also gave a concentration at 240 min [2, 12] of 6.06 ng/g, a concentration at 360 min [2, 12] of 7.4 ng/g and a concentration at 480 min [2, 12] of 1.98 ng/g. It also gave a half-life ([2]; male, CD-1, mouse, brain, ip, 0.2 mg/kg) of 2.08 h, a concentration at 1 min [2, 13] of 0 ng/mL and a concentration at 5 min [2, 13] of 0.512 ng/mL. It also gave a concentration at 15 min [2, 13] of 1.63 ng/mL, a concentration at 30 min [2, 13] of 4.54 ng/mL and a concentration at 60 min [2, 13] of 3.59 ng/mL. The concentration at 120 min [2, 13] was 3.55 ng/mL, the concentration at 240 min [2, 13] was 1.18 ng/mL and the concentration at 360 min [2, 13] was 0.867 ng/mL. The concentration at 480 min [2, 13] was 0 ng/mL, the AUC(0-inf) [2, 14] was 14.4 ng·h/mL and the Cmax [2, 14] was 4.5 ng/mL and 11 nM. For the same compound, the Jump [3, 15] was 2 (2×) and 4 and 0 (2×), the Paw lick [3, 15] was 27 and 43 and 44 and 13 and 16 and the Paw shake [3, 15] was 12 (2×) and 25 and 5 and 6. The Paw withdrawal [3, 15] was 24 (2×) and 13 and 23 and 8, the “hot plate response normalised to baseline (Figure4b), individual animals” value (“hot plate response normalised” for short) ([3]; Dose 0.05 mg/kg) was 102.582 and 109.155 and 97.1831 and 135.446 and 112.911 and the “hot plate response normalised” value ([3]; Dose 0.1 mg/kg) was 324.648 and 182.16 and 233.803 and 158.685 and 147.887 and 257.981 and 154.695 and 178.169 and 197.418 and 155.869. For the same compound, the “hot plate response normalised” value ([3]; Dose 0.2 mg/kg) was 174.413 and 176.291 and 188.028 and 167.84 and 94.8357 and 253.991 and 380.986 and 174.648 and 215.493 and 126.291, the “hot plate response normalised” value ([3]; Dose 0.5 mg/kg) was 308.685 and 139.202 and 403.052 and 315.493 and 134.742 and 404.695 and 140.141 and 141.549 and 236.62 and 416.667 and the “lowest dose with significantly increased hot plate latency” value ([3]; i.p., 30 min after injection) was 0.5 mg/kg. For the same compound, the “rotarod performance (Figure6b), individual animals” value (“rotarod performance (Figure6b)” below) ([4]; Dose 0.2 mg/kg) was 300 and 283, the “rotarod performance (Figure6b)” value ([4]; Dose 0.5 mg/kg) was 300 and 234 and 278 and 166 and 268 and 275 and 273 and the “rotarod performance (Figure6b)” value ([4]; Dose 1.0 mg/kg) was 201 and 300 and 258 and 267 and 295 and 215 and 252 and 282 and 235. The “rotarod performance (Figure6b)” value ([4]; Dose 2.0 mg/kg) was 298 and 90 and 300 and 163 and 260, the “dose showing locomotor deficits or sedation, rotarod” value ([4]; i.p.) was 2 mg/kg and the “Fold of Basal RLU” value [5] was 0.8 and 0.9 and 1. For the same compound, the “Fold of Basal RLU” value [6] was 0.9 fold and 0.8 fold, the “Fold of Basal RLU” value [7] was 0.8 fold and 0.9 fold and 0.6 fold and the “acetone test response after spared nerve injury (Figure5b), individual animals” value ([8]; Dose 0.2 mg/kg) was 92 and 82 and 36 and 30 and 65. For the same compound, the “effect on acetone-induced nocifensive behaviors” value ([8]; spared nerve injury, i.p.) was “strongly reduced spared nerve injury-induced cold allodynia”, the “radioligand binding … (normalized)” value ([9]; M = -6.64345) was 0.8301 and 3.196 and the “radioligand binding … (normalized)” value ([9]; M = -7.35666) was 5.0447 and 7.642. For the same compound, the “radioligand binding … (normalized)” value ([9]; M = -8.06987) was 20.2107 and 22.6869, the “radioligand binding … (normalized)” value ([9]; M = -8.78308) was 55.4917 and 61.8361 and the “radioligand binding … (normalized)” value ([9]; M = -9.49629) was 84.5147 and 77.217. For the same compound, the “radioligand binding … (normalized)” value ([9]; M = -10.2095) was 91.2197 and 92.4778, the “radioligand binding … (normalized)” value ([9]; M = -10.9227) was 85.5045 and 95.2415 and the “radioligand binding … (normalized)” value ([9]; M = -11.6359) was 108.381 and 91.8049. The “catalepsy (Figure6c), individual animals” value ([10]; 0.2 mg/kg dose) was 0.9 and 0.7 and 0.8 (2×) and 0.4, the “catalepsy (Figure6c), individual animals” value ([10]; 0.5 mg/kg dose) was 0.6 (3×) and 0.8 and 0.9 and the “catalepsy (Figure6c), individual animals” value ([10]; 1 mg/kg dose) was 0.7 and 0.6 and 1.2 and 1.1 (2×). For the same compound, the “catalepsy, latency to move all four paws” value ([10]; i.p., ‘1350 at 0.2 or 0.5 mg/kg, haloperidol 1.0 mg/kg) was “does not induce catalepsy at any tested dose up to 1 mg/kg”.
